Source: paper PMC4956231, “Molecular Mechanisms for Drug Hypersensitivity Induced by the Malaria Parasite’s Chloroquine Resistance Transporter” (PLoS Pathogens, 2016)

Tests used:
[1] = tested on: P. falciparum isolate HON; conditions: HON (PfCRT^3D7); IC50 in line divided by IC50 in drug-sensitive reference strain; cited from earlier work
P. falciparum Dd2 = conditions: Dd2 (PfCRT^Dd2); IC50 in line divided by IC50 in drug-sensitive reference strain; cited from earlier work
P. falciparum 106/1 = conditions: 106/1 (76K-PfCRT^K1); IC50 in line divided by IC50 in drug-sensitive reference strain; cited from earlier work
[2] = tested on: P. falciparum line 106/1^76T; conditions: 106/1^76T (PfCRT^K1); IC50 in line divided by IC50 in drug-sensitive reference strain; cited from earlier work
[3] = tested on: P. falciparum line 106/1^76N; conditions: 106/1^76N (76N-PfCRT^K1); IC50 in line divided by IC50 in drug-sensitive reference strain; cited from earlier work
[4] = tested on: P. falciparum line 106/1^76I,352K; conditions: 106/1^76I,352K (76I,352K-PfCRT^K1); IC50 in line divided by IC50 in drug-sensitive reference strain; cited from earlier work
[5] = tested on: P. falciparum line 106/1^76I,352R; conditions: 106/1^76I,352R (76I,352R-PfCRT^K1); IC50 in line divided by IC50 in drug-sensitive reference strain; cited from earlier work
[6] = tested on: P. falciparum line 106/1^76I,369F; conditions: 106/1^76I,369F (76I,369F-PfCRT^K1); IC50 in line divided by IC50 in drug-sensitive reference strain; cited from earlier work
P. falciparum line K1AM = conditions: K1AM (163R,356V-PfCRT^K1); IC50 in line divided by IC50 in drug-sensitive reference strain; cited from earlier work
PfCRT^K1 = conditions: oocytes; cited from earlier work
76K-PfCRT^K1 [7] = assay: [3H]drug transport into Xenopus oocytes expressing PfCRT; type: cell-based, Plasmodium falciparum; conditions: oocytes expressing 76K-PfCRT^K1; pH 5.0, 50 μM unlabeled amantadine
Method: (§1) For each treatment, 10 oocytes were transferred to a 5 mL polystyrene round bottom tube (Falcon) and washed twice with 3.5 mL of ND96 buffer, with the residual buffer removed by pipette. […] The assay was terminated by removing the reaction buffer with a pipette and washing the oocytes twice with 3.5 mL of ice-cold ND96 buffer. Each oocyte was transferred to a separate well of a white 96-well plate (NUNC or PerkinElmer), incubated overnight at room temperature in 30 μL of 10% SDS, and mixed on an orbital shaker the following day for approximately 5 min. The lysed oocyte was then combined with 150 μL of MicroScint-40 microscintillant (PerkinElmer), the plate covered with a TopSeal-A (PerkinElmer), and the radioactivity measured with a PerkinElmer MicroBeta^2 microplate liquid scintillation analyzer.

76I,369F-PfCRT^K1 [8] = biological target: T1, 76I,369F-PfCRT^K1 (Plasmodium falciparum, UniProt Q9N623, A220S/K76I/M74I/N326S/N75E/Q271E/R371I/V369F); assay: Inhibition of PfCRT-mediated [3H]CQ transport in oocytes; type: cell-based; conditions: via 76I,369F-PfCRT^K1 in oocytes
T1 sequence (Q9N623 whole entry A220S/K76I/M74I/N326S/N75E/Q271E/R371I/V369F): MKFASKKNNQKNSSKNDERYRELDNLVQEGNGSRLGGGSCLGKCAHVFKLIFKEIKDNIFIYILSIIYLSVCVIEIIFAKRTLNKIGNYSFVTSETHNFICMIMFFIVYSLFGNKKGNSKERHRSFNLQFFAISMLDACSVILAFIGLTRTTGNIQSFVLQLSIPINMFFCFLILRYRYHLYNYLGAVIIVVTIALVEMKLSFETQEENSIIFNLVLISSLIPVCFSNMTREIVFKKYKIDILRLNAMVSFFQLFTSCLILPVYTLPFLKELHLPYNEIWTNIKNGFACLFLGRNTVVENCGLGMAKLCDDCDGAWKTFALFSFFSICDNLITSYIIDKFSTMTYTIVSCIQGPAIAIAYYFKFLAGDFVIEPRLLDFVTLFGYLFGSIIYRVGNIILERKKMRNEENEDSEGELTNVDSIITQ
Method: as §1
(§2) The IC50 values presented in Fig 3A were determined in SigmaPlot by a least-squares fit of the equation y = y min + [(y max—y min)/(1 + ([inhibitor]/IC50)c] to the data, where y is PfCRT-mediated CQ transport, y min and y max are the minimum and maximum values of y, and c is a fitted constant. PfCRT-mediated CQ transport was calculated by subtracting the uptake measured in the control oocytes (oocytes expressing 76K PfCRT^K1) from that in oocytes expressing 76I-PfCRT^K1 or 76I,369F-PfCRT^K1.

76I-PfCRT^K1 [9] = biological target: T2, 76I-PfCRT^K1 (Plasmodium falciparum, UniProt Q9N623, A220S/K76I/M74I/N326S/N75E/Q271E/R371I); assay: as above; type: cell-based; conditions: via 76I-PfCRT^K1 in oocytes
T2 sequence (Q9N623 whole entry A220S/K76I/M74I/N326S/N75E/Q271E/R371I): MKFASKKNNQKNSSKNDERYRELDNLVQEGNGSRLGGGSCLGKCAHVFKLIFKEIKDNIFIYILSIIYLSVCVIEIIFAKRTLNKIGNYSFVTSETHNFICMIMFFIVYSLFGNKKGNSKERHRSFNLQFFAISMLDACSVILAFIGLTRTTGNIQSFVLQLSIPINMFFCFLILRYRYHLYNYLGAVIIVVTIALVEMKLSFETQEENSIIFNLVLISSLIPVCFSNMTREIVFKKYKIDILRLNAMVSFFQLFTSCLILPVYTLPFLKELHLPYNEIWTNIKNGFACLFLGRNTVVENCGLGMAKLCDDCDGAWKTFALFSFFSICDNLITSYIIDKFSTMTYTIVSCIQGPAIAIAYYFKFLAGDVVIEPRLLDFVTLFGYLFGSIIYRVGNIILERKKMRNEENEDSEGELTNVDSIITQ
Method: as §1, §2

76K-PfCRT^K1 [10] = assay: Trans-stimulation of [3H]CQ uptake by microinjected compound in oocytes; type: cell-based, Plasmodium falciparum; conditions: oocytes expressing 76K-PfCRT^K1, microinjected amantadine
Method: (§3) A subset of experiments measured the ability of unlabeled amantadine to trans-stimulate the uptake of [^3H]CQ into the oocyte. Immediately prior to the commencement of the experiment, the oocytes (days 3–4 post-injection of the cRNA) were microinjected with either amantadine (estimated intracellular concentrations of 1, 2.5, 5, 10, 15, or 20 mM) or a control treatment (buffer, spermine, or histidine; the estimated intracellular concentrations of spermine and histidine were 5 and 10 mM). The volume injected was 50 nL and the intracellular concentrations were calculated using previous estimates of the volume of stage V-VI oocytes (~400 nL [77]). The resealed oocytes were then incubated at 16–18°C in OR^2+ buffer for approximately 5 min and the influx of [^3H]CQ was measured as described above. […] The Michaelis-Menten equation was then fitted to the data to derive the kinetic parameters for the trans-stimulation of [^3H]CQ transport by amantadine.

PfCRT^3D7 = assay: as above; type: cell-based, Plasmodium falciparum; conditions: oocytes expressing PfCRT^3D7, microinjected amantadine
Method: as §3

PfCRT^Dd2 = assay: as above; type: cell-based, Plasmodium falciparum; conditions: oocytes expressing PfCRT^Dd2 microinjected with unlabeled amantadine
Method: as §3

76I,369F-PfCRT^K1 [11] = biological target: T1, 76I,369F-PfCRT^K1; assay: as above; type: cell-based
Method: as §3

76I-PfCRT^K1 [12] = biological target: T2, 76I-PfCRT^K1; assay: as above; type: cell-based
Method: as §3

PfNT1 = PfNT1 (Plasmodium falciparum, UniProt Q8IDM6); assay: as above; type: cell-based; conditions: oocytes expressing PfNT1, microinjected amantadine
Sequence of PfNT1 (Q8IDM6 whole entry): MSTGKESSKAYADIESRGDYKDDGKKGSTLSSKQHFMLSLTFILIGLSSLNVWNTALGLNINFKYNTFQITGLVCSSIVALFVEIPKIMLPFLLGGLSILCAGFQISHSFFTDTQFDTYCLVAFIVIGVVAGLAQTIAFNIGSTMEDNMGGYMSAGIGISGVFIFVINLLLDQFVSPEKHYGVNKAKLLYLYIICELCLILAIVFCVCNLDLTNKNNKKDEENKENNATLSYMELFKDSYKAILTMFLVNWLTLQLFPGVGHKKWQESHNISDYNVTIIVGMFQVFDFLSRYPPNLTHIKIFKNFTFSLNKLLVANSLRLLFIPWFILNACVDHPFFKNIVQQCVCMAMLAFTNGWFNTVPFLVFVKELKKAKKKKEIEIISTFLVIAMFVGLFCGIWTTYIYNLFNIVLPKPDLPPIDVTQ
Method: as §3

noninjected oocytes = assay: as above; type: cell-based, Xenopus laevis; conditions: microinjected amantadine
Method: as §3

## CCN(CC)CCCC(C)Nc1ccnc2cc(Cl)ccc12 (stereo not shown) [CQ, chloroquine]
[1]
  Drug susceptibility (In vitro resistance index): 1
P. falciparum Dd2
  Drug susceptibility (In vitro resistance index): 11.78 ± 0.18
P. falciparum 106/1
  Drug susceptibility (In vitro resistance index): 1.10 ± 0.06
[2]
  Drug susceptibility (In vitro resistance index): 12.95 ± 0.95
[3]
  Drug susceptibility (In vitro resistance index): 8.60 ± 0.90
[4]
  Drug susceptibility (In vitro resistance index): 0.91 ± 0.09
[5]
  Drug susceptibility (In vitro resistance index): 1.58 ± 0.02
[6]
  Drug susceptibility (In vitro resistance index): 3.53
P. falciparum line K1AM
  Drug susceptibility (In vitro resistance index): 0.95
PfCRT^K1
  CQ transport activity of PfCRT^K1, higher than that of PfCRT^Dd2: ~ 20%

## NC12CC3CC(CC(C3)C1)C2 [amantadine]
76K-PfCRT^K1 [7]
  [3H]amantadine accumulation relative to background: failed to take up
76I,369F-PfCRT^K1 [8]
  IC50: 174 ± 26 µM
76I-PfCRT^K1 [9]
  IC50: 186 ± 16 µM
76K-PfCRT^K1 [10]
  effect on accumulation of [3H]CQ (trans-stimulation): did not affect
PfCRT^3D7
  effect on accumulation of [3H]CQ (trans-stimulation): did not affect
PfCRT^Dd2
  increase in the rate of CQ influx (trans-stimulation): 6.7 ± 0.3 pmol per oocyte/h
76I,369F-PfCRT^K1 [11]; 76I,369F-PfCRT^K1
  Hill coefficient (trans-stimulation of [3H]CQ uptake): 1.46 ± 0.05
76I,369F-PfCRT^K1 [11]; oocytes expressing 76I,369F-PfCRT^K1 microinjected with unlabeled amantadine
  increase in the rate of CQ influx (trans-stimulation): 0.43 ± 0.02 pmol per oocyte/h
76I-PfCRT^K1 [12]; 76I-PfCRT^K1
  Hill coefficient (trans-stimulation of [3H]CQ uptake): 1.49 ± 0.07
76I-PfCRT^K1 [12]; oocytes expressing 76I-PfCRT^K1 microinjected with unlabeled amantadine
  increase in the rate of CQ influx (trans-stimulation): 0.68 ± 0.04 pmol per oocyte/h
PfNT1
  effect on accumulation of [3H]CQ (trans-stimulation): did not affect
Noninjected oocytes
  effect on accumulation of [3H]CQ (trans-stimulation): did not affect
